Source: patent US20210196652A1, “USE OF CYSTEAMINE AND DERIVATIVES THEREOF TO TREAT DYSFUNCTIONAL TEAR SYNDROME (DTS)” (MESHABERASE, LLC, priority 2019, published 2021)

Columns and labels:
[1] = Schirmer test (filter paper strip in lower fornix) in treated DTS patients; type: in vivo, human; settings: MMP-positive patients (Patients 1 and 3)
Text: (§1) Sterile ocular cysteamine drops with a concentration of 0.44% were used in a dosage schedule of one drop per eye, four times per day.
(§2) Four patients were self-treated with cysteamine ocular drops as described above for 30-37 days. Patients were requested to fill out a diary sheet daily and to return weekly for follow-up. Three of the four patients filled out the diary that included a 3-point Likert scale of symptoms, number of times drops were used daily, and a space for other comments. […] Patients were tested for MMP using the INFLAMMADRY test (see Kaufman) and the Schirmer test (in which a filter paper strip is placed in the lower fornix of the eyelid to absorb tears), with and without anesthesia, using Oxford grading (observation of conjunctiva and cornea using BIO-GLO fluorescein strips) at entry, and Schirmer with and without anesthesia on the final visit.

[2] = administered for conditions such as cystinosis; available cysteamine products; cited from earlier work
[3] = tested on: intracellular cystine levels in circulating leukocytes; settings: cited from earlier work
[4] = Self-treatment of dysfunctional tear syndrome patients with cysteamine ocular drops: symptom diary (3-point Likert scale), weekly interviews, patient reports; type: in vivo, human
Text: as §1, §2
Four patients (Patients 1, 2, 3, and 4) were tested. […] Among the patients testing MMP-positive, there was an improvement in Likert-scale and other comments. […] Patients 1 and 3 returned for 4 weekly visits; Patient 2 returned for 5 weekly visits.
Patient 4 was not tested for MMP, but presented with symptoms of DTS, including years of pain and poor response to other treatments. On the theory the MMP is involved or a causative factor in recurrent epithelial erosion and dry eye, they were treated using the same regimen noted above for Patients 1, 2, and 3. Following treatment, Patient 4 reports being “cured,” and is apparently free of significant symptoms.

[5] = cited from earlier work
[6] = children with cystinosis, enteral administration

NCCS [cysteamine, Cysteamine (HS—CH2—CH—2—NH2)]
Schirmer tests at the end of the study [1]: improvement in Schirmer tests | ocular adverse effects [2]: slinging and stippling erosion of the cornea | intracellular cystine levels in circulating leukocytes ([3]; Dohil et al. 2006): lowering of intracellular cystine levels | lowering of leukocyte cystine levels [3, 6]: prolonged efficacy | plasma cysteamine levels [3, 6]: increased plasma cysteamine levels | objective and subjective symptoms of Dry Eye Disease (DTS, dry eye, keratitis sicca) ([4]; MMP positive patients, 0.44% drops, one drop per eye, four times per day): decreases | Likert-scale (3-point scale of symptoms) and other diary comments ([4]; MMP-positive patients (Patients 1 and 3), 0.44% drops four times per day, 30-37 days): improvement | symptoms reported at interview during each weekly visit ([4]; MMP-positive patients (Patients 1 and 3), FIGS. 1 and 2): changes in symptoms indicative of improvement | need for artificial tears after starting treatment ([4]; Patient 2, MMP-negative): able to go without artificial tears for a majority of the four weeks | 3-point Likert scale of symptoms ([4]; Patient 2, MMP-negative, no objective findings of DTS): did not report changes | patient-reported outcome following treatment ([4]; Patient 4, not tested for MMP, recurrent epithelial erosion and dry eye, same regimen): cured | unpleasant side effects ([5]; high systemic dosing levels and frequencies, CYSTAGON package insert): gastrointestinal distress and body odor | metabolism and clearance from the body ([5]; systemic administration): converted to taurine in a matter of hours
